Source: ChEMBL document CHEMBL1158801, “Acylphloroglucinol derivatives from Mahurea palustris” (J Nat Prod, 2005)
Active and inactive are the calls of the source. No cut-off for these calls is given here.

System: Human immunodeficiency virus
Assay: Inhibition of HIV reverse transcriptase at 50 uM

fold change (FC) | SMILES
2 | CC(C)=CCC1CC2(CC=C(C)C)C(=O)C(C(=O)CC(C)C)=C(O)OC2=C(C(CC(=O)O)c2ccccc2)C1(C)C (stereo not given) [MAHUREONE A]

Molecular target: DNA polymerase beta (Homo sapiens, UniProt P06746)
Assay: Inhibition of human recombinant DNA polymerase beta assessed as fluorescein-12-dCTP incorporation by fluorimetry

IC50 | Activity | SMILES
28 µM |  | CC(C)=CCC1CC2(CC=C(C)C)C(=O)C(C(=O)CC(C)C)=C(O)OC2=C(C(CC(=O)O)c2ccccc2)C1(C)C (stereo not given) [MAHUREONE A]
342 µM |  | CCCC(CC(=O)O)C1=C2OC(O)=C(C(=O)C(C)CC)C(=O)C2(CC=C(C)C)CC(CC=C(C)C)C1(C)C (stereo not given) [MAHUREONE E]
73 µM |  | CCC(C)C(=O)C1=C(O)OC2=C(C(CC(=O)O)c3ccccc3)C(C)(C)C(CC=C(C)C)CC2(CC=C(C)C)C1=O (stereo not given) [MAHUREONE B]
12 µM |  | CCCC(CC(=O)O)C1=C2OC(O)=C(C(=O)CC(C)C)C(=O)C2(CC=C(C)C)CC(CC=C(C)C)C1(C)C (stereo not given) [MAHUREONE D]
 | inactive | CCC(C)C(=O)C1=C(O)OC2=C(C(CC(=O)O)c3ccccc3)C(C)(C)C(CCC(C)(C)OC(=O)C(F)(F)F)CC2(CC=C(C)C)C1=O (stereo not given)
 | inactive | CCC(C)C(=O)C1=C(O)OC2=C(C(CC(=O)O)c3ccccc3)C(C)(C)C(CCC(C)(C)NC(C)=O)CC2(CC=C(C)C)C1=O (stereo not given)
 | inactive | CC(C)=CCC1CC2(CC=C(C)C)C(=O)C(C(=O)C(C)C)=C(O)OC2=C(C(CC(=O)O)c2ccccc2)C1(C)C (stereo not given)
1.3 µM |  | Nc1ccn([C@H]2CC[C@@H](COP(=O)(O)OP(=O)(O)OP(=O)(O)O)O2)c(=O)n1 [ddCTP SODIUM]
 | inactive | CCC(C)C(=O)C1=C(O)OC2=C(C(CC(=O)O)c3ccccc3)C(C)(C)C(CCC(C)(C)O)CC2(CC=C(C)C)C1=O (stereo not given)
